As usually defined, the pIC50 is the IC50 on a negative log10 scale, so that one unit is a factor of ten.

Molecules are shown by their SMILES. pIC50: −log10 of the molar value.

The subject of assay [1] is CTGF gene expression. Description: CTGF QPCR assay for inhibition of basal and TGFβ2-induced CTGF gene expression in cultured human TM cells. The assay is classed as cell-based. The following applies: for inhibition of basal CTGF gene expression (mRNA levels) / inhibition of TGFβ2-induced CTGF gene expression (mRNA levels): cultured human normal or glaucomatous TM cells, QPCR; for inhibition of TGFβ2-induced CTGF gene expression (mRNA levels): TGFβ2-stimulated; for inhibitory activity on CTGF expression: human TM cells, basal or TGFβ2-induced not specified. The text has this:
FIG. 3. Effect of GSK-3 inhibition on CTGF gene expression in glaucomatous TM cells.
FIG. 4. Effect of CDK2 inhibition on CTGF gene expression in glaucomatous TM cells. To determine the effects of CDK inhibition on CTGF gene expression, we measured the effects of the known CDK2 inhibitor GW-8510 (Davis, et al. 2001) on both basal and TGFβ2-stimulated CTGF mRNA expression in a glaucomatous TM cell line (SGTM2697) using QPCR analysis.
The inventors have tested several different compound classes in a CTGF QPCR assay for inhibition of basal and TGFβ2-induced CTGF gene expression in cultured human normal or glaucomatous TM cells. Small molecule inhibitors were targeted at the inhibition of GSK-3, CDK, NAALADase, Protein Kinase C, MEK, p38MAPK, ROCK, VEGF, geranylgeranyl transferase and AGE. Small molecule agonists of PPAR, 5-HT, and P2X7 were also tested for activity. Compounds which target extracellular signal-regulated kinase 1 or 2 (ERK1 or ERK2) may also play a role in basal or TGFβ2-induced CTGF gene expression.
Total RNA was isolated from TM cells using Trizol® reagent according to the manufacturer's instructions (Life Technologies). First strand cDNA was generated from 1 ug of total RNA using random hexamers and TaqMan® Reverse Transcription reagents according to the manufacturer's instructions (PE Biosystems, Foster City, Calif.). The 100 ul reaction was subsequently diluted 20-fold to achieve an effective cDNA concentration of 0.5 ng/ul.
Differential expression of CTGF was verified by quantitative real-time RT-PCR (QPCR) using an ABI Prism® 7700 Sequence Detection System (Applied Biosystems). essentially as described (Shepard et al., IOVS 2001, 42:3173). Primers for CTGF amplification were designed using Primer Express software (Applied Biosystems) and anneal to adjacent exons of Genbank accession # NM_001901.1 ([…], nts 1667-1689 and […], nts 1723-1742) and generate a 76-bp amplicon. Amplification of CTGF was normalized to 18S ribosomal RNA expression using primers designed to the 18S rRNA gene (GenBank accession #X03205 […], nts 1680-1700 and […], nts 1730-1749) which generates a 69-bp amplicon. The SYBR® Green I double-stranded DNA binding dye chemistry (Applied Biosystems) was used to amplify CTGF or 18S cDNA. Specificity of the CTGF and 18S primer pairs was assessed from the PCR product by a combination of DNA sequencing, agarose gel analysis and dissociation curve analysis using the ABI Prism 770 SDS Dissociation Curve software (Applied Biosystems). CTGF or 18S rRNA reactions consisted of 1×SYBR Green PCR Master Mix (Applied Biosystems), 50 nM primer concentrations and 2.5 ng cDNA in a final volume of 50 ul. Thermal cycling conditions consisted of 50° C., 2 min, 95° C. 10 min followed by 40 cycles at 95° C., 15 sec, 60° C., 1 min. Quantification of relative RNA concentrations was done using the relative standard curve method as described in PE Biosystems User Bulletin #2 (http://docs.appliedbiosystems.com/pebiodocs/04303859.pdf). Data analysis was performed with SDS software version 1.9.1 (Applied Biosystems) and MS Excel 97 (Microsoft). Plasmid DNA containing target sequence for CTGF or 18S was used for generating the standard curve. QPCR data are presented as mean±SD.

For assay [2], the target named is CDK1 (Homo sapiens, UniProt P06493). The following applies: cited from earlier work.
Sequence of CDK1 (P06493 whole entry, species assumed): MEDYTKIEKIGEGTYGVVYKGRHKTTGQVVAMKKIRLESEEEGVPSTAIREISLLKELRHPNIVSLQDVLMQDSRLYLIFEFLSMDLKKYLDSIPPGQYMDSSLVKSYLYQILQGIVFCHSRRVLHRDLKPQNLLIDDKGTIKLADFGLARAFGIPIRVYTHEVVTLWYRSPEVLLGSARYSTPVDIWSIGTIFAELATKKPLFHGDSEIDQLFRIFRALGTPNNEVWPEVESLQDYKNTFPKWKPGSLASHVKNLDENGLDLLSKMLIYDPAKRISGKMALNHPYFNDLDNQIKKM
Sequence of CDK1 (P14635 whole entry partner, species assumed): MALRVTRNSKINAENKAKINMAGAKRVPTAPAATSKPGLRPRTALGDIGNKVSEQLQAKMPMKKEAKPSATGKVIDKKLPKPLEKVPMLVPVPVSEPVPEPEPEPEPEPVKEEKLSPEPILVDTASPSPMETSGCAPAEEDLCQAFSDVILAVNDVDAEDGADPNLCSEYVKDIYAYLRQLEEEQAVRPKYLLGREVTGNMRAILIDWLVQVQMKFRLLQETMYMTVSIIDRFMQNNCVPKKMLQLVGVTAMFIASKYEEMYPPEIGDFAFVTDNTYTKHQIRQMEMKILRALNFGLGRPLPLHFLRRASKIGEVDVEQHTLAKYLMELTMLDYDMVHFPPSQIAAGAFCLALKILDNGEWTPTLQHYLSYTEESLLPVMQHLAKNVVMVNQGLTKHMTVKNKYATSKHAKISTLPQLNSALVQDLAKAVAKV
Assay [3] addresses CDK4 (Homo sapiens, UniProt P11802). To be noted: cited from earlier work.

Sequence of CDK4 (P11802 whole entry, species assumed): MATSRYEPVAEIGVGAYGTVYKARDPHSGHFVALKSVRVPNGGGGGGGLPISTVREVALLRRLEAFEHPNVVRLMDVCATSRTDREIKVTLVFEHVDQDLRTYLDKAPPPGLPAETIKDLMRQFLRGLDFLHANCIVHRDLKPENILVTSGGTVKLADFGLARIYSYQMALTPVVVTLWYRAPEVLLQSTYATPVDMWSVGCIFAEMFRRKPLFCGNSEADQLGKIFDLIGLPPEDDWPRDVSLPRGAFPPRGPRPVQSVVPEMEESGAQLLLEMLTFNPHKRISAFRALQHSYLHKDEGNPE
Sequence of CDK4 (P24385 whole entry partner, species assumed): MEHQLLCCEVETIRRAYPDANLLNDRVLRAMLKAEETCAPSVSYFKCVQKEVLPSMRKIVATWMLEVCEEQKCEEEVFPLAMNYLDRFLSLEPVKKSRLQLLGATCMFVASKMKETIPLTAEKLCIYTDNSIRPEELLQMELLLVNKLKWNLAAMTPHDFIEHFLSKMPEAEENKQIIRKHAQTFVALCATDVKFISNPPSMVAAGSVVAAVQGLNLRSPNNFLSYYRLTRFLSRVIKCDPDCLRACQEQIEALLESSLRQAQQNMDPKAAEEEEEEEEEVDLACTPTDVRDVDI

For `N#Cc1ccc2[nH]c3c(c2c1)CC(=O)Nc1ccccc1-3` [9-cyanopaullone], the “inhibition of basal CTGF gene expression (mRNA levels)” value in assay [1] is “inhibit basal”. Still for that read-out and setting: in the case of `CCCCC[C@H](O)/C=C/C=C\C/C=C\C/C=C\CCCC(=O)O` [15(S)HETE] it was “inhibit basal”. Turning to `O=C1Nc2ccc3ncsc3c2/C1=C/Nc1ccc(S(=O)(=O)Nc2ccccn2)cc1` [GW-8510], the negative logarithm of the IC50 (pIC50) in assay [2] was 6.96. Further, the pIC50 in assay [3] is 6.89. In addition, in assay [1], the “inhibition of TGFβ2-induced CTGF gene expression (mRNA levels)” value is “inhibit” and the “inhibition of basal CTGF gene expression (mRNA levels)” value is given as “inhibit”. As for `Cn1cc(C2=C(c3ccc(Cl)cc3Cl)C(=O)NC2=O)c2ccccc21` [SB-216763], in assay [1], the “inhibition of TGFβ2-induced CTGF gene expression (mRNA levels)” value is “inhibit” and the “inhibition of basal CTGF gene expression (mRNA levels)” value is recorded as “inhibit”. Regarding `O=C1Cc2c([nH]c3ccc([N+](=O)[O-])cc23)-c2ccccc2N1` [alsterpaullone], the “inhibition of basal CTGF gene expression (mRNA levels)” value in assay [1] was “inhibit basal”.

With `O=C1Cc2c([nH]c3ccc(Br)cc23)-c2ccccc2N1` [kenpaullone], in assay [1], the “inhibition of basal CTGF gene expression (mRNA levels)” value is “inhibit basal”. `CC(C)[C@H](CO)Nc1nc(Nc2cccc(Cl)c2)c2ncn(C(C)C)c2n1` [purvalanol A]: the “inhibitory activity on CTGF expression” value in assay [1] was “inhibitory activity”. Consider `CC[C@H](CO)Nc1nc(NCc2ccccc2)c2ncn(C(C)C)c2n1` [roscovitine], for which, in assay [1], the “inhibitory activity on CTGF expression” value is listed as “inhibitory activity”.
